These molecules were tested against T1, Recombinant human CETP (Homo sapiens, UniProt P11597) (assay: CETP in vitro assay (fluorometric assay, Roar Biomedical; cholesterol ester transfer from HDL to LDL)). Settings: recombinant human CETP from CHO cells; 3 hours at 37° C.; fluorescence 485/535 nm; compound concentrations between 1 nM and 30 μM; read-out: IC50 values for inhibition of CETP.
T1 construct: made in house; host or cells: CHO cells (secreted into conditioned medium)
T1 sequence (P11597 18-493): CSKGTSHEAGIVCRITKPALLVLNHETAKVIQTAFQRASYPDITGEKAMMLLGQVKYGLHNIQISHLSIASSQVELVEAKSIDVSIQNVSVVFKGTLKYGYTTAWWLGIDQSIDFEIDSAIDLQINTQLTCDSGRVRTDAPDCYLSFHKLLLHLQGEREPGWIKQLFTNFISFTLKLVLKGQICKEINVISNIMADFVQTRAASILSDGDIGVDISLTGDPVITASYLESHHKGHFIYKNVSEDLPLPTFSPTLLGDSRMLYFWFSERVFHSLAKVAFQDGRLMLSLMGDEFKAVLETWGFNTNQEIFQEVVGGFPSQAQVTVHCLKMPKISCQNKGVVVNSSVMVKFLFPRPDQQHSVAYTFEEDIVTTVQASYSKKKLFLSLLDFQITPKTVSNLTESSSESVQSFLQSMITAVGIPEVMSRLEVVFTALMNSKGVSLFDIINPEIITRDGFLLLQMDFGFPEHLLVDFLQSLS
Type: biochemical
Method: CETP inhibitory activity of compounds of the present invention can be determined in a fluorometric assay purchased from Roar Biomedical, Inc. (New York, N.Y., USA). […] Recombinant human CETP was partially purified from medium conditioned by CETP expressing CHO cells. In a 384 well format 2.5 μl of compound solution in DMSO was combined with 2 μl of donor solution, 2 μl of acceptor solution and 0.8 μl of recombinant human CETP solution in a total volume of 100 μl with assay buffer and incubated for 3 hours at 37° C. The fluorescence intensity was measured at excitation wavelength of 485 nm and emission wavelength of 535 nm. IC50 values are calculated from dose effect curves from compound concentrations between 1 nM and 30 μM.

Compared with `CC1(C)C[C@H](O)c2c(nc(C3CCOCC3)c3c2C2(CCCC2)O[C@@H]3c2ccc(S(F)(F)(F)(F)F)cc2)[C@@H]1O` [4(6), (3′R,6′R,9′S)-7′,7′-dimethyl-4′-(tetrahydro-2H-pyran-4-yl)-3′-(4-(pentafluorosulfanyl)phenyl)-6′,7′,8′,9′-tetrahydro-3′H-spiro[cyclopentane-1,1′-furo[3,4-c]quinoline]-6′,9′-diol], `CC1(C)C[C@H](O)c2c(nc(C3CCOCC3)c3c2C2(CCOCC2)O[C@@H]3c2ccc(S(F)(F)(F)(F)F)cc2)[C@@H]1O` [4(12), (3R,6R,9S)-7,7-dimethyl-4-(tetrahydro-2H-pyran-4-yl)-3-(4-(pentafluorosulfanyl)phenyl)-2′,3′,5′,6,6′,7,8,9-octahydro-3H-spiro[furo[3,4-c]quinoline-1,4′-pyran]-6,9-diol] is 3.7-fold higher in IC50: 19 nM for the first, 70 nM for the second. The first is the more potent here.

`CC(C)c1nc2c(c3c1[C@@H](c1ccc(C(F)(F)F)cn1)OC31CCOCC1)[C@@H](O)CC(C)(C)C2` [1(67), (3S,9S)-4-isopropyl-7,7-dimethyl-3-(5-(trifluoromethyl)pyridin-2-yl)-2′,3′,5′,6,6′,7,8,9-octahydro-3H-spiro[furo[3,4-c]quinoline-1,4′-pyran]-9-ol] and `CC(C)c1nc2c(c3c1[C@@H](c1ccc(C(F)(F)F)nc1)OC31CCOCC1)[C@@H](O)CC(C)(C)C2` [1(47), (3R,9S)-4-isopropyl-7,7-dimethyl-3-(6-(trifluoromethyl)pyridin-3-yl)-2′,3′,5′,6,6′,7,8,9-octahydro-3H-spiro[furo[3,4-c]quinoline-1,4′-pyran]-9-ol] are within 1.5-fold of each other in IC50: 161 nM for the first, 136 nM for the second.

Compared with `CC(C)c1nc2c(c3c1[C@@H](c1ccc(C(F)(F)F)nc1)OC31CCOCC1)[C@@H](O)CC(C)(C)[C@@H]2O` [5(7), (3R,6S,9S)-4-isopropyl-7,7-dimethyl-3-(6-(trifluoromethyl)pyridin-3-yl)-2′,3′,5′,6,6′,7,8,9-octahydro-3H-spiro[furo[3,4-c]quinoline-1,4′-pyran]-6,9-diol], `CC(C)c1nc2c(c3c1[C@@H](c1ccc(C(F)(F)F)c(F)c1)OC31CCOCC1)[C@@H](O)CC(C)(C)[C@H]2O` [5(6), (3R,6R,9S)-3-(3-fluoro-4-(trifluoromethyl)phenyl)-4-isopropyl-7,7-dimethyl-2′,3′,5′,6,6′,7,8,9-octahydro-3H-spiro[furo[3,4-c]quinoline-1,4′-pyran]-6,9-diol] is 320-fold lower in IC50: 4120 nM for the first, 13 nM for the second. The second is the more potent here.

Compared with `CC1(C)Cc2nc(C3CCOCC3)c3c(c2[C@@H](O)C1)C1(CCOCC1)O[C@@H]3c1ccc(C(F)(F)F)nc1` [1(76), (3R,9S)-7,7-dimethyl-4-(tetrahydro-2H-pyran-4-yl)-3-(6-(trifluoromethyl)pyridin-3-yl)-2′,3′,5′,6,6′,7,8,9-octahydro-3H-spiro[furo[3,4-c]quinoline-1,4′-pyran]-9-ol], `CC1(C)Cc2nc(C3CCOCC3)c3c(c2[C@@H](O)C1)C1(CCOCC1)O[C@@H]3c1ccc(C(C)(C)C)cc1` [1(70), (3R,9S)-3-(4-tert-butylphenyl)-7,7-dimethyl-4-(tetrahydro-2H-pyran-4-yl)-2′,3′,5′,6,6′,7,8,9-octahydro-3H-spiro[furo[3,4-c]quinoline-1,4′-pyran]-9-ol] is 16-fold lower in IC50: 886 nM for the first, 57 nM for the second. The second is the more potent here.

First: O[C@H]1CC2(CCC2)[C@@H](O)c2nc(C3CCOCC3)c3c(c21)C1(CCOCC1)O[C@@H]3c1ccc(C(F)(F)F)cn1 [6(1), (3S,6R,9S)-7,7-(propan-1,3-diyl)-4-(tetrahydro-2H-pyran-4-yl)-3-(5-(trifluoromethyl)pyridin-2-yl)-2′,3′,5′,6,6′,7,8,9-octahydro-3H-spiro[furo[3,4-c]quinoline-1,4′-pyran]-6,9-diol]
Second: O[C@H]1CC2(CCC2)Cc2nc(C3CCOCC3)c3c(c21)C1(CCOCC1)O[C@@H]3c1ccc(C(F)(F)F)cn1 [1(75), (3S,9S)-7,7-(propan-1,3-diyl)-4-(tetrahydro-2H-pyran-4-yl)-3-(5-(trifluoromethyl)pyridin-2-yl)-2′,3′,5′,6,6′,7,8,9-octahydro-3H-spiro[furo[3,4-c]quinoline-1,4′-pyran]-9-ol]
The IC50 of the first is 4.2-fold higher: 1220 nM for the first, 288 nM for the second. The second is the more potent here.

First: COC(C)(C)c1nc2c(c3c1[C@@H](c1ccc(C(F)(F)F)cc1)OC31CCOCC1)[C@@H](O)CC(C)(C)C2 [1(83), (3R,9S)-4-(2-methoxypropan-2-yl)-7,7-dimethyl-3-(4-(trifluoromethyl)phenyl)-2′,3′,5′,6,6′,7,8,9-octahydro-3H-spiro[furo[3,4-c]quinoline-1,4′-pyran]-9-ol]
Second: CC1(C)Cc2nc(C(C)(C)C)c3c(c2[C@@H](O)C1)C1(CCOCC1)O[C@@H]3c1ccc(C(F)(F)F)cc1 [1(80), (3R,9S)-4-tert-butyl-7,7-dimethyl-3-(4-(trifluoromethyl)phenyl)-2′,3′,5′,6,6′,7,8,9-octahydro-3H-spiro[furo[3,4-c]quinoline-1,4′-pyran]-9-ol]
The IC50 of the first is 1.9-fold lower: 25 nM for the first, 47 nM for the second. The first is the more potent here.

`O[C@H]1CC2(CCC2)Cc2nc(C3CCOCC3)c3c(c21)C1(CCOCC1)O[C@@H]3c1ccc(C(F)(F)F)cc1` [1(77), (3R,9S)-7,7-(propan-1,3-diyl)-4-(tetrahydro-2H-pyran-4-yl)-3-(4-(trifluoromethyl)phenyl)-2′,3′,5′,6,6′,7,8,9-octahydro-3H-spiro[furo[3,4-c]quinoline-1,4′-pyran]-9-ol] and `N#Cc1cc([C@H]2OC3(CCOCC3)c3c2c(C2CCOCC2)nc2c3[C@@H](O)CC3(CCC3)C2)ccc1C(F)(F)F` [1(72), 5-((3R,9S)-9-hydroxy-7,7-(propan-1,3-diyl)-4-(tetrahydro-2H-pyran-4-yl)-2′,3′,5′,6,6′,7,8,9-octahydro-3H-spiro[furo[3,4-c]quinoline-1,4′-pyran]-3-yl)-2-(trifluoromethyl)benzonitrile] are the same in IC50: 39 nM for the first, 39 nM for the second.

Going from `CC(C)c1nc2c(c3c1[C@@H](c1ccc(C(F)(F)F)c(C#N)c1)OC31CCOCC1)[C@@H](O)CC(C)(C)[C@H]2O` [4(15), 5-((3R,6R,9S)-6,9-dihydroxy-4-isopropyl-7,7-dimethyl-2′,3′,5′,6,6′,7,8,9-octahydro-3H-spiro[furo[3,4-c]quinoline-1,4′-pyran]-3-yl)-2-(trifluoromethyl)benzonitrile] to `CC(C)c1nc2c(c3c1[C@@H](c1ccc(C(F)(F)F)cc1F)OC31CCOCC1)[C@@H](O)CC1(CCC1)C2` [1(51), (3S,9S)-3-(2-fluoro-4-(trifluoromethyl)phenyl)-4-isopropyl-7,7-(propan-1,3-diyl)-2′,3′,5′,6,6′,7,8,9-octahydro-3H-spiro[furo[3,4-c]quinoline-1,4′-pyran]-9-ol], the IC50 falls from 27 nM to 13 nM (2.1-fold). The second is the more potent here.

First: C=C(C)c1ccc([C@H]2OC3(CCCC3)c3c2c(C(C)C)nc2c3[C@@H](O)CC(C)(C)C2)cc1 [1(60), (3′R,9′S)-4′-isopropyl-7′,7′-dimethyl-3′-(4-(prop-1-en-2-yl)phenyl)-6′,7′,8′,9′-tetrahydro-3′H-spiro[cyclopentane-1,1′-furo[3,4-c]quinolin]-9′-ol]
Second: CC(C)c1nc2c(c3c1[C@@H](c1ccc(C(F)(F)C(F)(F)F)cc1)OC31CCCC1)[C@@H](O)CC(C)(C)C2 [1(65), (3′R,9′S)-4′-isopropyl-7′,7′-dimethyl-3′-(4-(perfluoroethyl)phenyl)-6′,7′,8′,9′-tetrahydro-3′H-spiro[cyclopentane-1,1′-furo[3,4-c]quinolin]-9′-ol]
The IC50 of the first is 1.9-fold lower: 44 nM for the first, 83 nM for the second.

Going from `CC(C)c1nc2c(c3c1[C@@H](c1ccc(OC(C)(C)C)cc1)OC31CCOCC1)[C@@H](O)CC(C)(C)C2` [1(58), (3R,9S)-3-(4-tert-butoxyphenyl)-4-isopropyl-7,7-dimethyl-2′,3′,5′,6,6′,7,8,9-octahydro-3H-spiro[furo[3,4-c]quinoline-1,4′-pyran]-9-ol] to `CC(C)Oc1ccc([C@H]2OC3(CCOCC3)c3c2c(C(C)C)nc2c3[C@@H](O)CC(C)(C)C2)cc1` [1(59), (3R,9S)-3-(4-isopropoxyphenyl)-4-isopropyl-7,7-dimethyl-2′,3′,5′,6,6′,7,8,9-octahydro-3H-spiro[furo[3,4-c]quinoline-1,4′-pyran]-9-ol], the IC50 rises from 88 nM to 245 nM (2.8-fold).

Going from `COCc1nc2c(c3c1[C@@H](c1ccc(C(F)(F)F)cc1)OC31CCOCC1)[C@@H](O)CC(C)(C)C2` [1(82), (3R,9S)-4-(methoxymethyl)-7,7-dimethyl-3-(4-(trifluoromethyl)phenyl)-2′,3′,5′,6,6′,7,8,9-octahydro-3H-spiro[furo[3,4-c]quinoline-1,4′-pyran]-9-ol] to `CC(C)c1nc2c(c3c1[C@@H](c1ccc(C(C)(C)C)cc1)OC31CCOCC1)[C@@H](O)CC1(CCC1)C2` [1(63), (3R,9S)-3-(4-tert-butylphenyl)-4-isopropyl-7,7-(propan-1,3-diyl)-2′,3′,5′,6,6′,7,8,9-octahydro-3H-spiro[furo[3,4-c]quinoline-1,4′-pyran]-9-ol], the IC50 falls from 786 nM to 6 nM (130-fold). The second is the more potent here.

`Cc1nc([C@H]2OC3(CCOCC3)c3c2c(C(C)C)nc2c3[C@@H](O)CC(C)(C)C2)sc1C(C)(C)C` [1(56), (3S,9S)-3-(5-tert-butyl-4-methylthiazol-2-yl)-4-isopropyl-7,7-dimethyl-2′,3′,5′,6,6′,7,8,9-octahydro-3H-spiro[furo[3,4-c]quinoline-1,4′-pyran]-9-ol] showed an IC50 of 470 nM.

— patent US9029544B2, “Tricyclic pyridine derivatives, medicaments containing such compounds, their use and process for their preparation” (Boehringer Ingelheim International GmbH, priority 2010, dated 2015)
